Results on 21 compounds are retold here after patent publication US7875645B2, “Method for the treatment of CNS disorders with substituted 2-imidazoles or imidazole derivatives” (Hoffman-La Roche Inc., priority 2006, dated 2011).

Molecules are shown by their SMILES. Counter-ions that a name gives are not always drawn.

One may read the Ki as a dissociation constant, usually derived from enzyme kinetics or from competition with a known ligand. The low end stands for higher affinity, the high end for lower affinity. As a reminder, the melting point is the temperature of the solid-liquid transition.

The target of the first data set is T1, TAAR1 (Mus musculus, UniProt Q923Y8).
T1 construct: expressed in transfected cells; host or cells: HEK293 (ATCC # CRL-1573), stably transfected with pIRESneo2 expression plasmid; membranes prepared
T1 sequence (Q923Y8 whole entry): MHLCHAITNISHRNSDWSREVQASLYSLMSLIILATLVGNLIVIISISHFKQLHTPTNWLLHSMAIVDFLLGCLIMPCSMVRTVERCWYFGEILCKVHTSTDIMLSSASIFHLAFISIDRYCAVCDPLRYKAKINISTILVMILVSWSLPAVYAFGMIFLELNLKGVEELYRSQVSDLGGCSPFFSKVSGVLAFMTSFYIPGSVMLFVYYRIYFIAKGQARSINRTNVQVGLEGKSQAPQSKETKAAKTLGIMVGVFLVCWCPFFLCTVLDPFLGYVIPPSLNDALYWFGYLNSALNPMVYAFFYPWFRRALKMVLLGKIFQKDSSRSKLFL
Description: Radioligand binding assay on membranes of HEK293 cells stably expressing TAAR1. As to conditions: mouse TAAR1; radioligand [3H]-rac-2-(1,2,3,4-tetrahydro-1-naphthyl)-2-imidazoline at 60 nM; 4° C., 30 min. The protocol: For the construction of expression plasmids the coding sequences of human, rat and mouse TAAR 1 were amplified from genomic DNA essentially as described by Lindemann et al.. The Expand High Fidelity PCR System (Roche Diagnostics) was used with 1.5 mM Mg^2+ and purified PCR products were cloned into pCR2.1-TOPO cloning vector (Invitrogen) following the instructions of the manufacturer. PCR products were subcloned into the pIRESneo2 vector (BD Clontech, Palo Alto, Calif.), and expression vectors were sequence verified before introduction in cell lines.
For the generation of stably transfected cell lines HEK293 cells were transfected with the pIRESneo2 expression plasmids containing the TAAR coding sequences (described above) with Lipofectamine 2000 (Invitrogen) according to the instructions of the manufacturer, and 24 hrs post transfection the culture medium was supplemented with 1 mg/ml G418 (Sigma, Buchs, Switzerland). After a culture period of about 10 d clones were isolated, expanded and tested for responsiveness to trace amines (all compounds purchased from Sigma) with the cAMP Biotrak Enzyme immunoassay (EIA) System (Amersham) following the non-acetylation EIA procedure provided by the manufacturer.
Cells at confluence were rinsed with ice-cold phosphate buffered saline without Ca^2+ and Mg^2+ containing 10 mM EDTA and pelleted by centrifugation at 1000 rpm for 5 min at 4° C. The pellet was then washed twice with ice-cold phosphate buffered saline and cell pellet was frozen immediately by immersion in liquid nitrogen and stored until use at −80° C. Cell pellet was then suspended in 20 ml HEPES-NaOH (20 mM), pH 7.4 containing 10 mM EDTA, and homogenized with a Polytron (PT 3000, Kinematica) at 10,000 rpm for 10 s. The homogenate was centrifuged at 48,000×g for 30 min at 4° C. and the pellet resuspended in 20 ml HEPES-NaOH (20 mM), pH 7.4 containing 0.1 mM EDTA (buffer A), and homogenized with a Polytron at 10,000 rpm for 10 s. The homogenate was then centrifuged at 48,000×g for 30 min at 4° C. and the pellet resuspended in 20 ml buffer A, and homogenized with a Polytron at 10,000 rpm for 10 s. Protein concentration was determined by the method of Pierce (Rockford, Ill.). The homogenate was then centrifuged at 48,000×g for 10 min at 4° C., resuspended in HEPES-NaOH (20 mM), pH 7.0 including MgCl2 (10 mM) and […] homogenized with a Polytron at 10,000 rpm for 10 s.
Binding assay was performed at 4° C. in a final volume of 1 ml, and with an incubation time of 30 min. […] Non-specific binding was defined as the amount of [^3H]-rac-2-(1,2,3,4-tetrahydro-1-naphthyl)-2-imidazoline bound in the presence of the appropriate unlabelled ligand (10 μM). Competing ligands were tested in a wide range of concentrations (10 pM-30 μM). […] Each experiment was performed in duplicate. Al incubations were terminated by rapid filtration through UniFilter-96 plates (Packard Instrument Company) and glass filter GF/C, pre-soaked for at least 2 h in polyethylenimine 0.3%, and using a Filtermate 96 Cell Harvester (Packard Instrument Company). The tubes and filters were then washed 3 times with 1 ml aliquots of cold buffer B. Filters were not dried and soaked in Ultima gold (45 μl/well, Packard Instrument Company) and bound radioactivity was counted by a TopCount Microplate Scintillation Counter (Packard Instrument Company).
`Brc1ccc(CC2=NCCN2)c2ccccc12` [Example 104, 2-(4-Bromo-naphthalen-1-ylmethyl)-4,5-dihydro-1H-imidazole] gave a Ki of 0.008 µM. This lies in the single-digit nanomolar range.
As for `c1ccc2cc(CC3=NCCN3)ccc2c1` [Example 141, 2-Naphthalen-2-ylmethyl-4,5-dihydro-1H-imidazole], the affinity corresponds to a Ki of 0.029 µM.
In the case of `c1ccc2c(CC3=NCCN3)csc2c1` [Example 143, 2-Benzo[b]thiophen-3-ylmethyl-4,5-dihydro-1H-imidazole], the Ki was found to be 0.004 µM.
In turn, `COc1ccc2ccccc2c1CC1=NCCN1` [Example 149, 2-(2-Methoxy-naphthalen-1-ylmethyl)-4,5-dihydro-1H-imidazole] displayed a Ki of 0.012 µM.
The same measure, in the same setting: the value for `Cc1ccc2ccccc2c1CC1=NCCN1` [Example 154, 2-(2-Methyl-naphthalen-1-ylmethyl)-4,5-dihydro-1H-imidazole] was 0.01 µM; that for `c1cc(CC2=NCCN2)c2ccoc2c1` [Example 168, 2-Benzofuran-4-ylmethyl-4,5-dihydro-1H-imidazole hydrochloride] was 0.045 µM; that for `COc1c(CC2=NCCN2)ccc2occc12` [Example 169, 2-(4-Methoxy-benzofuran-5-ylmethyl)-4,5-dihydro-1H-imidazole hydrochloride] was 0.045 µM.
Same read-out and setting: next, `c1cc2ccc(CC3=NCCN3)cc2o1` [Example 170, 2-Benzofuran-6-ylmethyl-4,5-dihydro-1H-imidazole hydrochloride]: 0.026 µM.
In turn, `Oc1ccc2ccccc2c1CC1=NCCN1` [Example 172, 1-(4,5-Dihydro-1H-imidazol-2-ylmethyl)-naphthalen-2-ol hydrochloride] had a Ki of 0.05 µM.
On the same count and under the same terms, next, `Brc1c(CC2=NCCN2)ccc2ccccc12` [Example 175, 2-(1-Bromo-naphthalen-2-ylmethyl)-4,5-dihydro-1H-imidazole]: 0.011 µM.
`Clc1cccc(I)c1CC1=NCCN1` [Example 187, 2-(2-Chloro-6-iodo-benzyl)-4,5-dihydro-1H-imidazole] gave a Ki of 0.016 µM.
On to `CCc1ccc(Cl)c(CC)c1CC1=NCCN1` [Example 196, 2-(3-Chloro-2,6-diethyl-benzyl)-4,5-dihydro-1H-imidazole], for which the Ki was determined as 0.023 µM.
The compound `CCc1c(Cl)ccc(F)c1CC1=NCCN1` [Example 198, 2-(3-Chloro-2-ethyl-6-fluoro-benzyl)-4,5-dihydro-1H-imidazole] yielded a Ki of 0.036 µM.
`CCc1ccc(F)c(CC)c1Cc1ncc[nH]1` [Example 202, 2-(2,6-Diethyl-3-fluoro-benzyl)-1H-imidazole]: the Ki was found to be 0.034 µM. This Ki and that of the compound before are within 1.5-fold of each other.
Same read-out and setting: the value for `CCc1ccc(OC)c(CC)c1CC1=NCCN1` [Example 206, 2-(2,6-Diethyl-3-methoxy-benzyl)-4,5-dihydro-1H-imidazole] was 0.038 µM; that for `CCc1cc(OC)cc(CC)c1Cc1ncc[nH]1` [Example 210, 2-(2,6-Diethyl-4-methoxy-benzyl)-1H-imidazole] was 0.048 µM; that for `CCOc1cc(CC)c(Cc2ncc[nH]2)c(CC)c1` [Example 215, 2-(4-Ethoxy-2,6-diethyl-benzyl)-1H-imidazole] was 0.029 µM.
The same measure, in the same setting: next, `CCOc1ccc(CC)c(Cc2ncc[nH]2)c1CC` [Example 217, 2-(3-Ethoxy-2,6-diethyl-benzyl)-1H-imidazole]: 0.024 µM.
On the same count and under the same terms, next, `CCc1ccc(OCc2ccccc2)c(CC)c1Cc1ncc[nH]1` [Example 218, 2-(3-Benzyloxy-2,6-diethyl-benzyl)-1H-imidazole]: 0.047 µM.
The compound `CCc1cc(Oc2ccccc2)cc(CC)c1Cc1ncc[nH]1` [Example 219, 2-(2,6-Diethyl-4-phenoxy-benzyl)-1H-imidazole] yielded a Ki of 0.012 µM.
Regarding `CCc1ccc(Oc2ccccc2)c(CC)c1Cc1ncc[nH]1` [Example 220, 2-(2,6-Diethyl-3-phenoxy-benzyl)-1H-imidazole], the Ki was 0.013 µM.

Test system in another data set: not given
Assay: not given
Details: not given
For `Brc1ccc(CC2=NCCN2)c2ccccc12` [Example 104, 2-(4-Bromo-naphthalen-1-ylmethyl)-4,5-dihydro-1H-imidazole], the melting point fell in the range of 133 to 135 °C.
